Series [1] has as its target T1, recombinant HsPheRS (Homo sapiens, UniProt Q9Y285).
T1 sequence (Q9Y285 1-508): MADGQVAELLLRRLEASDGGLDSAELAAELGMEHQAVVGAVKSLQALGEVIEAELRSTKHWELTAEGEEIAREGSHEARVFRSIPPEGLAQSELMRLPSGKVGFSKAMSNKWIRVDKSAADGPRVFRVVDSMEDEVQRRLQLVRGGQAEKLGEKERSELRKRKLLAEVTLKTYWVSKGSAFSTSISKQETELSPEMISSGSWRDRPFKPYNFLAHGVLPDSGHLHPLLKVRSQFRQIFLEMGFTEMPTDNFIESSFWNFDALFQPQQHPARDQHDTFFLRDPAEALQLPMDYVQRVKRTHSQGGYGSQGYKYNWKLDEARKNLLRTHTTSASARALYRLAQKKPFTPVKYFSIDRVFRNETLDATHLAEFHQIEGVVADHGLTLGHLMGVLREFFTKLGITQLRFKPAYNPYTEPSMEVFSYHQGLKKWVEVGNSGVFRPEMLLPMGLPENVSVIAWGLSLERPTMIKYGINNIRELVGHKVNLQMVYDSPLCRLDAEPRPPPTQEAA
T1 sequence (Q9NSD9 1-589 partner): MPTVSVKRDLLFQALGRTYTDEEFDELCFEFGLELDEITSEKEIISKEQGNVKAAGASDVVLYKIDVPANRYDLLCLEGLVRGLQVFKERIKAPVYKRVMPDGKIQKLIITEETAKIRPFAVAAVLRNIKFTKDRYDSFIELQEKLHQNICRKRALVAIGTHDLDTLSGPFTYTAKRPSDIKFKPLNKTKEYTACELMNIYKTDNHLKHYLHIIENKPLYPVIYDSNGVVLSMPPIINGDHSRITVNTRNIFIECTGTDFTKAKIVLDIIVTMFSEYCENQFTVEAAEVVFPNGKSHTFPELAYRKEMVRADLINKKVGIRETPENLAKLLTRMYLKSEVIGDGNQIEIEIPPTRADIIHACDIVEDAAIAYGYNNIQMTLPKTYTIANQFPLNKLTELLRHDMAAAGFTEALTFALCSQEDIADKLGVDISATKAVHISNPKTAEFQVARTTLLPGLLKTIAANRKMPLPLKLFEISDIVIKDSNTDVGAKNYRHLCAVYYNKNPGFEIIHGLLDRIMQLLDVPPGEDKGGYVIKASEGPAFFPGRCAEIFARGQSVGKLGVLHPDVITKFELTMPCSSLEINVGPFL
The experiment in a line: Malachite green aminoacylation enzyme assay, HsPheRS. The note with it: for Hu PheRS enzyme assay raw signal: replicates.

For series [2], the system named is T. gondii RHΔΔ TgPheRS[V262A]. Briefly: Tachyzoite lytic assay, V262A mutant. The class given is cell-based. The note with it: Toxoplasma gondii. The procedure: In vitro cultures of HFF cells containing mature vacuoles were scraped, passaged through 23 g blunt end needles, and filtered using 3 micron filters. Purified parasites were resuspended in 350 μL of cytomix plus[49] and combined in a BTX 4 mm gap cuvette with 30 μL of PCR amplified templates corresponding to mutations of interest and 10 μg of pSAG1:Cas9-GFP U6:sgTgPheRS^[mut] (in 20 μL, 400 μL total volume, see Supplementary Data 1 for sgRNA sequences) prior to electroporation using a BTX ETM 830 electroporator. Amplified templates for TgPheRS mutations were generated from gBlocks (Integrated DNA Technologies, Coralville, IA, USA) that contain a BclI restriction site that replaces the PAM sequence to protect the repair template from being cut by Cas9. […]
Parasite growth on HFF monolayers was monitored using a 96-well plate-based lytic assay modified from a previously described protocol. […] Plates were rinsed with water, air dried, and absorption quantified on the Cytation 3 multi-mode imager at 570 nm wavelength. % parasite growth was calculated as 100−[(OD value for infected cultures at each concentration of compound/average OD value for no compound and no parasite infection) × 100]. EC50 values were calculated based on the mean of three biological replicates with each replicate containing two technical replicates.

For series [3] the following is noted: mouse; cited from earlier work.
Series [4] deals with firefly luciferase expressing T. gondii strains (GT1, RH, ME49, CTG, MAS, RUB, FOU, VAND). The experiment in a line: Luciferase-based growth assay, FLuc parasites of diverse genotypes. The class given is cell-based. The note with it: Toxoplasma gondii. On the procedure: In vitro cultures of HFF cells containing mature vacuoles were scraped, passaged through 23 g blunt end needles, and filtered using 3 micron filters. Purified parasites were resuspended in 350 μL of cytomix plus[49] and combined in a BTX 4 mm gap cuvette with 30 μL of PCR amplified templates corresponding to mutations of interest and 10 μg of pSAG1:Cas9-GFP U6:sgTgPheRS^[mut] (in 20 μL, 400 μL total volume, see Supplementary Data 1 for sgRNA sequences) prior to electroporation using a BTX ETM 830 electroporator. Amplified templates for TgPheRS mutations were generated from gBlocks (Integrated DNA Technologies, Coralville, IA, USA) that contain a BclI restriction site that replaces the PAM sequence to protect the repair template from being cut by Cas9. At 16 h post-transfection, transgenic parasites expressing pSAG1:Cas9-GFP were sorted on a Sony SH800 FACS sorter directly into 96-well plates. Single clones containing TgPheRS^[mut] were identified by amplifying a ~500 bp PCR fragment around introduced mutation followed by digestion using BclI (New England Biolabs) BclI sensitive clones were expanded and the locus was Sanger sequenced to verify incorporation of each independent mutation. To generate firefly luciferase (FLuc) expressing strains, freshly harvested parasites were combined with 20 μg of pTUB-FLUC DHFR flox plasmid and 10 μg of pSAG1:Cas9-GFP U6:sgUPRT[50] (in 50 μL cytomix plus) and transformed by electroporation as described above. Parasites were allowed to recover overnight followed by sequential selection with pyrimethamine (1.0 μM) and 5-flurodeoxyuracil (FUDR, 10 μM), as described previously. Stable clones were isolated by limiting dilution and a clone from each genetic background selected based on high luciferase activity (Table 1).
All assays were carried out in a 96-well plate format containing confluent HFF monolayers to support parasite growth. To avoid edge effects, only the inner 60 wells of each plate were used. All compounds described were provided by the Broad Institute as 10 mM stocks in 100% DMSO and stored at −80 °C prior to use. Pyrimethamine (Sigma-Aldrich) was prepared as 5 mM stock in 100% DMSO and stored at −20 °C prior to use.

Where “and” joins values, the source holds several entries; their conditions need not be identical. Identical values can stand only once. Like-named read-outs stand apart in the source and are kept apart here.

As usually defined, the IC50 is the concentration needed to halve the response being measured. For orientation: EC50 means the concentration at which the effect is half-maximal. For the compound `COc1ccc(NC(=O)N2CCCCN3[C@H](CN(C)C)[C@H](c4ccc(C#Cc5ccccc5)cc4)[C@@H]3C2)cc1` [BRD7929], in series [1], the half-inhibitory concentration (IC50) is 22300 nM. The “Hu PheRS enzyme assay raw signal” value in series [1] (BRD7929 0.000001 μM) is 0.7213 and 0.8235 and 0.7680; in series [1] (BRD7929 0.000010 μM), 0.6210 and 0.7246 and 0.7585; in series [1] (BRD7929 0.000100 μM) it was 0.6366 and 0.8166 and 0.8094; in series [1] (BRD7929 0.001000 μM) it was 0.7178 and 0.7568 and 0.6293; in series [1] (BRD7929 0.010000 μM), 0.4951 and 0.5827 and 0.6166; in series [1] (BRD7929 0.100000 μM) it was 0.5035 and 0.5467 and 0.5776. The “Hu PheRS enzyme assay raw signal” value was 0.4827 and 0.4553 and 0.5046 in series [1] (BRD7929 1.000000 μM); 0.4350 and 0.4477 and 0.4390 in series [1] (BRD7929 10.000000 μM); 0.4107 and 0.4228 and 0.4405 in series [1] (BRD7929 100.000000 μM). Further, the EC50 in series [2] (72 h, read-out: EC50, V262A) is 202 nM; in series [2] (read-out: EC50 (growth restriction)) it was 159 nM; in series [4] (GT1, all eight lineages, read-out: EC50 against tachyzoite growth, all lineages) it was less than 50 nM; in series [4] (GT1, strain CTG, type III, N. America, read-out: EC50) it was 31.5 nM; in series [4] (GT1, strain FOU, type VI, Europe, read-out: EC50), 45.1 nM; in series [4] (GT1, strain GT1, type I, N. America, read-out: EC50) it was 16.1 nM. The concentration for a half-maximal effect (EC50) in series [4] (GT1, strain MAS, type IV, Europe, read-out: EC50) was determined as 42 nM; in series [4] (GT1, strain ME49, type II, Europe, read-out: EC50) it was 49.4 nM; in series [4] (GT1, strain RH, type I, Europe, read-out: EC50) it was 24.1 nM; in series [4] (GT1, strain RUB, type V, S. America, read-out: EC50) it was 26.9 nM; in series [4] (GT1, strain VAND, type X, S. America, read-out: EC50) it was 27.9 nM. For the same compound, in series [3], the oral bioavailability was 80%.

The values are drawn from publication PMC8786932, “Bicyclic azetidines target acute and chronic stages of Toxoplasma gondii by inhibiting parasite phenylalanyl t-RNA synthetase” (Nature Communications, 2022).
